Data published in ChEMBL document CHEMBL3243921, “2-Pyrrolidinylideneureas, a new class of central nervous system agents” (J Med Chem, 1978).
Active and inactive are the calls of the source.

How the values were obtained:
Mus musculus [1] = test: Anticonvulsant activity in po dosed mouse assessed as blockade of supramaximal electroshock-induced […] seizure; format: functional
Rattus norvegicus = test: Antianxiety activity in ip dosed rat assessed as effect on increase in punished responses administered qd for 5 days measured every day for 5 days; format: functional
Mus musculus [2] = test: Hypnotic activity in po dosed mouse assessed as increase in pentylenetetrazol-induced persistent-convulsive threshold; format: functional, organism-based
Mus musculus [3] = test: Sedative-hypnotic activity in po dosed mouse assessed as increase in pentylenetetrazol-induced persistent-convulsive threshold; format: functional, organism-based
Mus musculus [4] = test: Muscle relaxant activity in po dosed mouse assessed as increase in strychnine-induced persistant convulsive threshold; format: functional
Mus musculus [5] = test: Muscle relaxant activity in po dosed mouse assessed as blockade of pentylenetetrazol-induced tonic extensor seizure; format: functional

SMILES	Activity (Mus musculus [1])	Activity (Rattus norvegicus)	Activity (Mus musculus [2])	Activity (Mus musculus [3])	Activity (Mus musculus [4])	Activity (Mus musculus [5])
CCCCN1CCC/C1=N\C(=O)Nc1cccc(Cl)c1	inactive	inactive	inactive	inactive	inactive	inactive
O=C(/N=C1\CCCN1Cc1ccccc1)Nc1c(Cl)cccc1Cl	inactive	inactive	inactive	inactive	inactive	inactive
Cc1cccc(C)c1NC(=O)/N=C1\C(C)C(c2ccccc2)CN1C (stereo unspecified)	inactive	inactive	inactive	inactive	inactive	inactive
Cc1cccc(C)c1NC(=O)/N=C1\CC(C)(C)CN1C	inactive	inactive	inactive	inactive	inactive	inactive
O=C(/N=C1\CCCCCN1)Nc1ccccc1	inactive	inactive	inactive	inactive	inactive	inactive
Cc1cccc(C)c1NC(=O)/N=C1\CCCN1Cc1ccccc1	inactive	inactive	inactive	inactive	inactive	inactive
CN1CCC/C1=N\C(=O)Nc1ccc(S(C)(=O)=O)cc1	inactive	inactive	–	–	inactive	inactive
CN1CCC/C1=N\C(=O)Nc1ccc(OCc2ccccc2)cc1	inactive	inactive	–	–	inactive	inactive
CN1CCC/C1=N\C(=O)Nc1ccc(F)cc1	inactive	inactive	–	–	inactive	inactive
CN1CCC/C1=N\C(=O)Nc1ccc(C(F)(F)F)cc1	–	inactive	–	–	–	–
CCCCN1CCC/C1=N\C(=O)Nc1c(C)cccc1C	inactive	inactive	inactive	inactive	inactive	inactive
O=C(/N=C1\CCCN1)NC1CCCCC1	–	inactive	–	–	–	–
CN1CCC/C1=N\C(=O)Nc1cc(C(F)(F)F)cc(C(F)(F)F)c1	Active	–	–	–	–	–
CN1CCC/C1=N\C(=O)Nc1ccc(Br)cc1	inactive	inactive	–	–	inactive	inactive
CN1CC(C)(C)C/C1=N\C(=O)Nc1c(Cl)cccc1Cl	inactive	inactive	inactive	inactive	inactive	inactive
CN1CCC/C1=N\C(=O)Nc1cccc([N+](=O)[O-])c1	–	inactive	–	–	–	–
CN1CC(C)(C)C/C1=N\C(=O)Nc1ccccc1	inactive	inactive	inactive	inactive	inactive	inactive
CN1CCCC/C1=N\C(=O)Nc1ccc(C(F)(F)F)cc1	inactive	inactive	inactive	inactive	inactive	inactive
Cc1cc(N(C)C)cc(C)c1NC(=O)/N=C1\CCCN1C	–	–	–	–	Active	Active
CSc1ccc(NC(=O)/N=C2\CCCN2C)cc1	inactive	inactive	–	–	inactive	inactive
CN1CCC/C1=N\C(=O)Nc1c(Br)cc(Br)cc1Br	–	–	–	–	Active	Active

SMILES	Activity (Mus musculus [1])	Activity (Rattus norvegicus)	Activity (Mus musculus [2])	Activity (Mus musculus [3])	Activity (Mus musculus [4])	Activity (Mus musculus [5])
CC1/C(=N\C(=O)Nc2c(Cl)cccc2Cl)N(C)CC1c1ccccc1 (stereo unspecified)	inactive	inactive	inactive	inactive	inactive	inactive
CCCCCCCCCCCCCCCCCCNC(=O)/N=C1\CCCN1	–	inactive	–	–	–	–
Cc1ccc(Cl)c(C)c1NC(=O)/N=C1\CCCN1C	–	–	–	–	Active	Active
CN1CCC/C1=N\C(=O)Nc1c(Cl)cc(Cl)cc1Cl	–	–	–	–	Active	Active
O=C(/N=C1\CCCN1)Nc1ccccc1	–	–	–	–	Active	Active
O=C1NC(=O)C(c2ccccc2)(c2ccccc2)N1	Active	–	–	–	–	–
CC1/C(=N\C(=O)Nc2ccccc2)N(C)CC1c1ccccc1 (stereo unspecified)	inactive	inactive	inactive	inactive	inactive	inactive
CN1CCCCC/C1=N\C(=O)Nc1ccccc1	inactive	inactive	inactive	inactive	inactive	inactive
CN1CCC/C1=N\C(=O)Nc1ccc(N(C)C)cc1	inactive	inactive	–	–	inactive	inactive
CC(C)c1ccccc1NC(=O)/N=C1\CCCN1C	Active	Active	Active	Active	Active	Active
Cc1cccc(C)c1NC(=O)/N=C1\CCCCCN1	inactive	inactive	inactive	inactive	inactive	inactive
CN1CCC/C1=N\C(=O)Nc1ccc(C(C)(C)C)cc1	inactive	inactive	–	–	inactive	inactive
COc1ccc(NC(=O)/N=C2\CCCN2C)cc1	inactive	inactive	–	–	inactive	inactive
CN1CCC/C1=N\C(=O)Nc1ccc(Cl)cc1	inactive	inactive	–	–	inactive	inactive
O=C(/N=C1\CCCN1)NC12CC3CC(CC(C3)C1)C2	–	inactive	–	–	–	–
CN1CCC/C1=N\C(=O)Nc1ccc(O)cc1	inactive	inactive	–	–	inactive	inactive
Cc1ccc(NC(=O)/N=C2\CCCN2C)cc1	inactive	inactive	–	–	inactive	inactive
Cc1cc(C)c(NC(=O)/N=C2\CCCN2C)c(C)c1	–	–	–	–	Active	Active
CCOc1ccc(NC(=O)/N=C2\CCCN2C)cc1	inactive	inactive	–	–	inactive	inactive
CCOC(=O)c1ccc(NC(=O)/N=C2\CCCN2C)cc1	inactive	inactive	–	–	inactive	inactive
